Source: US5204343A, “5H-benzodiazepin derivative” (Egis Gyogyszergyar, priority 1990, dated 1993)
Entries after “also recorded” stand apart in the source; their conditions may differ.

How the values were obtained:
mice [1] = test: Behaviour test on mice (method of Irwin); assay type: in vivo
Excerpt: The effects of the compound of formula (I) and the reference compound (girisopam) were examined by the method of Irwin [Psychopharmacol. 13, 222 (1968)].

Acute toxicity, rat = test: Acute toxicity, rat; design: species or system rat (male, CFY strain); conditions: in vivo, ip, 14 days observation
Method: (§1) The experiments were carried out on male mice belonging to the CFLP strain (body weight: 20-22 g) and on male rats belonging to the CFY strain. […] The LD50 values were determined with the aid of the method of Lichtfield and Wilcoxon [J. Pharmacol. Exp. Ther. 96, 99 (1949)]. The compounds were suspended in 2 to 5% Tween 80. The animals were treated in volumes of 0.1 ml/10 g (mice) and 0.5 ml/100 g (rats).

[2] = Anxiolytic, antiaggressive and antidepressant effects, overall statement; assay type: in vivo; conditions: vs girisopam
mice [3] = test: Antiaggressive effect on mice ("fighting behaviour" test of Tedeschi et al.); assay type: in vivo; conditions: Mus musculus, confidence limit in separate column
Excerpt: The antiaggressive effect was examined by the method of Tedeschi et al. (the so-called "fighting behaviour" test) [J. Pharm. Exp. Ther. 25, 28 (1959)].

[4] = Acute toxicity, overall statement; assay type: in vivo; conditions: vs girisopam
Method: as §1

mice [5] = test: Narcosis potentiating effect on mice (hexobarbital-Na); assay type: in vivo; conditions: for Prolongation of narcosis time: hexobarbital-Na 50 mg/kg i.v.
Method: The prolongation of the narcosis time was related to the sleeping time of the control group treated with a 50 mg/kg i.v. dose of hexobarbital-Na. The test compound was administered […].

rats = test: Anxiolytic effect on rats ("lick-conflict" test of Vogel); assay type: in vivo; conditions: for Numbers of shocks tolerated: 50 mg/kg i.p., pretreatment 30 minutes, vehicle 5.7 ± 0.6 (formula (I) series), 5.1 ± 0.9 (girisopam series); for number of tolerated shocks, result in words: same dose (50 mg/kg i.p.)
Method: The anxiolytic effect was investigated according to the so-called "lick-conflict" test of Vogel [Psychopharmacol. 21, 1 (1971)]. Time of pretreatment: 30 minutes.

[6] = Pharmacological experiments, overall (spectrum, potency, therapeutical index); assay type: in vivo; conditions: vs girisopam
[7] = Muscle relaxant and anticonvulsive effects; conditions: in vivo
Acute toxicity, mouse = test: Acute toxicity, mouse; design: species or system mouse (male, CFLP strain); conditions: in vivo, 14 days observation
Method: as §1

[8] = vs Grandaxin (tofisopam); cited from earlier work

## COc1cc2c(cc1OC)C(c1cccc(Cl)c1)=NN=C(CO)C2 [Compound of formula (I), 1-(3-chlorophenyl)-4-hydroxymethyl-7,8-dimethoxy-5H-2,3-benzodiazepine]
Mice [1]; 100 mg/kg i.p.
  spontaneous motor activity (SMA) after 60 minutes: SMA.dwnarw.
  spontaneous motor activity (SMA) after 120 minutes: SMA.dwnarw.
  spontaneous motor activity (SMA) after 180 minutes: SMA.dwnarw.
Mice [1]; 200 mg/kg p.o.
  spontaneous motor activity (SMA) after 60 minutes: SMA.dwnarw.
  spontaneous motor activity (SMA) after 120 minutes: SMA.dwnarw.
  spontaneous motor activity (SMA) after 180 minutes: SMA.dwnarw.
Mice [1]; mice, vs girisopam
  decrease of spontaneous motor activity, compared with reference compound: decreases the spontaneous motor activity on mice to the same degree as the reference compound
Acute toxicity, rat
  LD50 at 336 h: > 1500 mg/kg
[2]
  anxiolytic, antiaggressive and antidepressant effects: as strong anxiolytic, antiaggressive and antidepressant effects as girisopam
Mice [3]
  ED50: 13.8 mg/kg
[4]
  acute toxicity compared with reference compound: considerably more favourable on both kinds of animals than that of the reference compound; also recorded: their acute toxicity is superior
Mice [5]; 12.5 mg/kg p.o.
  Prolongation of narcosis time: 145%
Mice [5]; 25 mg/kg p.o.
  Prolongation of narcosis time: 232%
Mice [5]; 50 mg/kg p.o.
  Prolongation of narcosis time: 444%
Mice [5]; p.o. doses 25 mg/kg and 50 mg/kg, vs girisopam
  narcosis potentiating activity compared with reference compound: practically as significant as that of the reference compound (girisopam) or even superior
rats
  Numbers of shocks tolerated: 13.8 ± 3.7
  number of tolerated shocks, result in words: significant increase on the number of tolerated shocks
[6]
  spectrum of activity and potency: as favourable as those of the reference compound (girisopam)
  therapeutical index compared with reference compound: more favourable than the reference compound
[7]
  muscle relaxant and anticonvulsive effects: do not show muscle relaxant and anticonvulsive effects
Acute toxicity, mouse; ip
  LD50 at 336 h: 1310 mg/kg
Acute toxicity, mouse; po
  LD50 at 336 h: > 2000 mg/kg

## COc1cc2c(cc1OC)C(c1cccc(Cl)c1)=NN=C(C)C2 [Girisopam, 1-(3-chlorophenyl)-4-methyl-7,8-dimethoxy-5H-2,3-benzodiazepine, reference compound]
Mice [1]; 100 mg/kg i.p.
  spontaneous motor activity (SMA) after 60 minutes: SMA.dwnarw.
  spontaneous motor activity (SMA) after 120 minutes: SMA.dwnarw.
  spontaneous motor activity (SMA) after 180 minutes: SMA.dwnarw.
Mice [1]; 200 mg/kg p.o.
  spontaneous motor activity (SMA) after 60 minutes: SMA.dwnarw.
  spontaneous motor activity (SMA) after 120 minutes: SMA.dwnarw.
  spontaneous motor activity (SMA) after 180 minutes: SMA.dwnarw.
Acute toxicity, rat
  LD50 at 336 h: 670 mg/kg
Mice [3]
  ED50: 16 mg/kg
[8]
  effectiveness compared with Grandaxin: five times more effective than the latter
Mice [5]; 25 mg/kg p.o.
  Prolongation of narcosis time: 305%
Mice [5]; 50 mg/kg p.o.
  Prolongation of narcosis time: 392%
rats
  Numbers of shocks tolerated: 19.0 ± 2.3
  number of tolerated shocks, result in words: significant increase on the number of tolerated shocks
Acute toxicity, mouse; ip
  LD50 at 336 h: 330 mg/kg
Acute toxicity, mouse; po
  LD50 at 336 h: 1250 mg/kg
